Here are results for one molecule from US20230393140A1, “BINDING ASSAYS INVOLVING A PLURALITY OF SYNTHETIC COMPOUNDS, TARGETS, AND COUNTER TARGETS” (SRI International, priority 2020, published 2023).

Numbered stars: 1 amine (or outer) side, 2 acyl side, 3 side chain; on linkers, the order of the positions; unused ones are H or OH. Square brackets hold non-standard residues; d marks the D form. Peptide text beside a SMILES is read from it. * marks the point of attachment. 5FAM = O=C1OC2(c3ccc(O)cc3Oc3cc(O)ccc32)c2ccc(C(=O)*)cc21; NHCH2C6H4(4-CH2CONH2) = NC(=O)Cc1ccc(CN*)cc1; X1 = O=C(Cc1ccc(CN[*:1])cc1)[*:2]

Assay [1] has as its target T1, K-Ras (Homo sapiens, UniProt P01116, G12V).
T1 construct: purchased Cytoskeleton Inc. CS-RS04
The experiment in a line: MST binding affinity of resynthesized NNP hits to K-Ras. The conditions noted are these: read-out: KD of K-Ras hits by MST. In outline:
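K-Ras G12V was GTP-loaded (EDTA exchange, 750 μM GTP, 2 h at 30° C, then MgCl2) and labeled with maleimide-647 dye. MST was run at room temperature in 20 mM HEPES pH 7.4, 150 mM NaCl, 10 mM MgCl2, 0.05% Tween-20, 1 mM DTT. Incubations lasted 15, 30 and 45 min; triplicate data fitted for affinity.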

Assay [2] has as its target T2, K-Ras-Raf interaction (Homo sapiens, UniProt P01116, G12V).
T2 construct: purchased Cytoskeleton Inc. (K-Ras); Jena Bioscience (Raf-RBD) CS-RS04; PR-305
Put plainly: K-Ras/Raf inhibition assay (MST competition binding). The conditions noted are these: NNP at 1 μM pre-incubated with K-Ras 15 minutes at room temperature, then Raf titration. The method, then:
This was tested on an MST competition binding assay (see FIG. 11A).
Loading was performed according to the following protocol: The 200 μM stock solution of the target protein was diluted to 10 μM in 20 mM HEPES pH 8.0, 150 mM NaCl, 10 mM MgCl2, 1 mM TCEP, 0.05% Tween-20 (total volume 110 μL). 10 μL were set aside for later labeling quality control. EDTA pH 8.0 (stock concentration 10 mM) was added to the protein solution to a final concentration of 80 μM. GTP (stock concentration 50 mM) was added to the protein solution to a final concentration of 750 μM. The solution was incubated at 30° C. for 2 hours (PCR tube) and then placed on ice for 2 minutes. MgCl2 was added to the protein solution to a final concentration of 100 mM. The resulting protein solution was buffer exchanged into the buffer required in the labeling kit for labeling. […] All the other target molecules (TNFα, IL-6, IL-6R and ASGPR) were used as received without any additional treatment.
Loading of K-Ras with the GTP was performed according to the protocol detailed above (Activation of K-Ras by GTP loading). After the GTP loading the resulting protein solution was buffer exchanged into 100 mM HEPES pH 6.5, 5 mM MgCl2, 50 mM NaCl, 1 mM TCEP.

The target in assay [3] is T3, K-Ras-CF555 versus Raf-AF647 (Homo sapiens, UniProt P01116, G12V).
T3 construct: purchased Cytoskeleton Inc. (K-Ras); Jena Bioscience (Raf-RBD) CS-RS04; PR-305
Put plainly: On-bead FAST/ADM competition screen, MFI of target and counter target. The class given is binding. The conditions noted are these: hit bead in primary competition screen.

For `CC(C)C[C@@H](NC(=O)c1ccc2c(c1)C(=O)OC21c2ccc(O)cc2Oc2cc(O)ccc21)C(=O)N1CCC[C@@H]1C(=O)N[C@H](CCC(=O)O)C(=O)N[C@H](CO)C(=O)N[C@@H](Cc1ccccc1)C(=O)NCc1ccc(CC(=O)NCC(=O)N[C@@H](C(=O)N2CCC[C@@H]2C(=O)N[C@H](CCCNC(=N)N)C(=O)N[C@@H](C)C(=O)NCc2ccc(CC(=O)N3CCC[C@@H]3C(=O)N[C@H](CO)C(=O)N[C@H](CCC(=O)O)C(=O)N[C@H](CCCNC(=N)N)C(=O)NCC(=O)NCc3ccc(CC(=O)N4CCC[C@@H]4C(=O)N[C@H](CCCCN)C(=O)N[C@H](Cc4ccc(O)cc4)C(=O)N[C@H](CCCNC(=N)N)C(=O)N[C@@H](Cc4ccccc4)C(=O)NCc4ccc(CC(=O)N[C@H](CCCNC(=N)N)C(=O)N[C@H](Cc5ccc(O)cc5)C(=O)N[C@@H](C(=O)N[C@H](CCC(=O)O)C(=O)N[C@@H](C)C(=O)NCc5ccc(CC(=O)N[C@H](Cc6ccc(O)cc6)C(=O)N6CCC[C@@H]6C(=O)N[C@H](CCCNC(=N)N)C(=O)N[C@H](CCC(=O)O)C(=O)NCC(=O)NCc6ccc(CC(N)=O)cc6)cc5)[C@H](C)O)cc4)cc3)cc2)C(C)C)cc1` [KRAS-1-4] (5FAM-[dL][dP][dE][dS]F[X1]G[dV][dP][dR]A[X1][dP][dS][dE][dR]G[X1][dP][dK][dY][dR]F[X1][dR][dY][dT][dE]A[X1][dY][dP][dR][dE]G-{NHCH2C6H4(4-CH2CONH2)}), the Kd in assay [1] was determined as 36 nM. Further, the “Inhibition of K-Ras-Raf PPI” value in assay [2] was “no inhibition”. Also, in assay [3], the “MFI ratio of the target (K-Ras-CF555) to the counter target (Raf-AF647) for the hit beads” value was 1.89.

A word on the Kd: it is the concentration at which binding is half-saturated.
